Results: patent publication US9169243B2, “Apoptosis signal-regulating kinase inhibitors” (Gilead Sciences, Inc., priority 2013, dated 2015)

target: recombinant human ASK1 kinase (Homo sapiens (Human), UniProt Q99683); experiment: TR-FRET ASK1 (Apoptosis Signal-Regulating Kinase 1) kinase assay; assay type: biochemical; conditions: TR-FRET/HTRF, 4 nM ASK1, 1 μM STK3 peptide substrate, 100 μM ATP, 3 hr; average of quadruplicate determination
Text: I. TR-FRET ASK1 (Apoptosis Signal-Regulating Kinase 1) Kinase Assay
To evaluate the inhibitory activity of compounds of the invention against ASK1 (Apoptosis Signal-regulating Kinase 1) kinase, its activity was examined using a TR-FRET ASK1 kinase assay which determined the amount of phosphate transferred to a peptide substrate from ATP.
Dephosphorylated recombinant human ASK1 kinase was from Gilead Sciences. Small molecule kinase inhibitor staurosporine (Catalogue #S6942) and dithiothreitol (DTT, catalogue #43815-5G) were obtained from Sigma Chemicals (St. Louis, Mo.). ATP (catalogue #7724) was from Affymetrix (Santa Clara, Calif.) and test compounds were from Gilead Sciences. HTRF KinEASE™-STK S3 kit was obtained from Cisbio (Bedford, Mass.). All other reagents were of the highest grade commercially available.
The assay measures the phosphorylation level of a biotinylated peptide substrate by the ASK1 kinase using HTRF detection. This is a competitive, time-resolved fluorescence resonance energy transfer (TR-FRET) immunoassay, based on HTRF® KinEASE™-STK manual from Cisbio. Test compound, 1 μM STK3 peptide substrate, 4 nM of ASK1 kinase were incubated with 10 mM MOP buffer, pH. 7.0 containing 10 mM Mg-acetate, 0.025% NP-40, 1 mM DTT, 0.05% BSA and 1.5% glycerol for 30 minutes then 100 μM ATP was added to start the kinase reaction and incubated for 3 hr. Peptide antibody labeled with 1×Eu^3+ Cryptate buffer containing 10 mM EDTA and 125 nM Streptavidin XL665 were added to stop the reaction and phosphorylated peptide substrate was detected using Envision 2103 Multilabeled reader from PerkinElmer. The fluorescence was measured at 615 nm (Cryptate) and 665 nm (XL665) and a ratio of 665 nm/615 nm was calculated for each well. The resulting TR-FRET level (a ratio of 665 nm/615 nm) was proportional to the phosphorylation level. Under these assay conditions, the degree of phosphorylation of peptide substrate was linear with time and concentration for the enzyme. The assay system yielded consistent results with regard to Km and specific activities for the enzyme. For inhibition experiments (IC50 values), activities were performed with constant concentrations of ATP, peptide and several fixed concentrations of inhibitors. Staurosporine, the nonselective kinase inhibitor, was used as the positive control. All enzyme activity data are reported as an average of quadruplicate determination.
The IC50 values were calculated following equation: y=Range/{1+(x/IC50)^s}+Background where x and y represent the concentration of inhibitors and enzyme activity, respectively. Enzyme activity is expressed as the amount of Phosphate incorporated into substrate peptide from ATP. Range is the maximum y range (no inhibitor, DMSO control) and s is a slope factor.

Chain of recombinant human ASK1 kinase (Q99683 whole entry): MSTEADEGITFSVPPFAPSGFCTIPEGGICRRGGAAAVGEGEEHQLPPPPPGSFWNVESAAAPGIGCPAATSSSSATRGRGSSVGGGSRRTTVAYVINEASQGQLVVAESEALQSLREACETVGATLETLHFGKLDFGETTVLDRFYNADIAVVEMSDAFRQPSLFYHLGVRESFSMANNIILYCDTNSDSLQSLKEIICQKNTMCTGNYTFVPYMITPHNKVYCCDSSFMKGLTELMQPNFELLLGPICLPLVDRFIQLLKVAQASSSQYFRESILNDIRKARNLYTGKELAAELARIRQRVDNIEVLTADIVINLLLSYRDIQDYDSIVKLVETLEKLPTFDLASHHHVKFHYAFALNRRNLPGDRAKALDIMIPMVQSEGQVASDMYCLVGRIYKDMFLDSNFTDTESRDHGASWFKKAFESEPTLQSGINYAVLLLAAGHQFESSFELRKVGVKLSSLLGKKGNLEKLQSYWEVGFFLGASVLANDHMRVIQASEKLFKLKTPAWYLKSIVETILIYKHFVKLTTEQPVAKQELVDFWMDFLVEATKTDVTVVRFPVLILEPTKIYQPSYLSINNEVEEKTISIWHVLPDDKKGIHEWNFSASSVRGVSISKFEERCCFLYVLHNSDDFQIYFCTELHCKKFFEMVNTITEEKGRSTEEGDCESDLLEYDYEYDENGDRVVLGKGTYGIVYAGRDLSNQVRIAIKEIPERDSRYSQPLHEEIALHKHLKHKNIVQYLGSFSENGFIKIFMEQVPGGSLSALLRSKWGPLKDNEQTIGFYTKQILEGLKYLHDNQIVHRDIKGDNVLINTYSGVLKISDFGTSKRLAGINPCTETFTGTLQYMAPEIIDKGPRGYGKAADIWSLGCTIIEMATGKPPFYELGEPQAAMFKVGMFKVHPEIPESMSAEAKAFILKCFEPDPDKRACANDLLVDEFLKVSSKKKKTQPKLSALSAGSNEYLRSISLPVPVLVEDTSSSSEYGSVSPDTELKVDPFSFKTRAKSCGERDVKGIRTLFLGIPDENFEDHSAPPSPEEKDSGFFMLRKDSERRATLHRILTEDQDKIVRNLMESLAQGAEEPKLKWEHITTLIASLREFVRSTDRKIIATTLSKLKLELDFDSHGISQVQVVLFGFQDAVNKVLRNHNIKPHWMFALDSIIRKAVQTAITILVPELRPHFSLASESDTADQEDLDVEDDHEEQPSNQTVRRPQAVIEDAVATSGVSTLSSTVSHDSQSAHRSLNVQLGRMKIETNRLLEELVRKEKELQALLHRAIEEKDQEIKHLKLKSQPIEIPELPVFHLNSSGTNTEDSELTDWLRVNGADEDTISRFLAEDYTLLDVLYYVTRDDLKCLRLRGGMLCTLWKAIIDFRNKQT

Compound | IC50 [nM]
COC1(C)CN(c2cnc(C(=O)Nc3csc(-c4nncn4[C@@H](C)C(F)(F)F)n3)cc2-n2cnc(C3CC3)c2)C1 [Compound 25, (S)-4-(4-cyclopropyl-1H-imidazol-1-yl)-5-(3-methoxy-3-methylazetidin-1-yl)-N-(2-(4-(1,1,1-trifluoropropan-2-yl)-4H-1,2,4-triazol-3-yl)thiazol-4-yl)picolinamide] | 2
C[C@H](n1cnnc1-c1nc(NC(=O)c2cc(-n3cnc(C4CC4)c3)c(N3CC(C(F)F)C3)cn2)cs1)C(F)(F)F [Compound 26, (S)-4-(4-cyclopropyl-1H-imidazol-1-yl)-5-(3-(difluoromethyl)azetidin-1-yl)-N-(2-(4-(1,1,1-trifluoropropan-2-yl)-4H-1,2,4-triazol-3-yl)thiazol-4-yl)picolinamide] | 1.7
C[C@H](n1cnnc1-c1nc(NC(=O)c2cc(-n3cnc(C4CC4)c3)c(N3CCC(F)(F)C3)cn2)cs1)C(F)(F)F [Compound 27, (S)-4-(4-cyclopropyl-1H-imidazol-1-yl)-5-(3,3-difluoropyrrolidin-1-yl)-N-(2-(4-(1,1,1-trifluoropropan-2-yl)-4H-1,2,4-triazol-3-yl)thiazol-4-yl)picolinamide] | 2.1
C[C@H](n1cnnc1-c1nc(NC(=O)c2cc(-n3cnc(C4CC4)c3)c(N3CCC(C#N)CC3)cn2)cs1)C(F)(F)F [Compound 29, (S)-5-(4-cyanopiperidin-1-yl)-4-(4-cyclopropyl-1H-imidazol-1-yl)-N-(2-(4-(1,1,1-trifluoropropan-2-yl)-4H-1,2,4-triazol-3-yl)thiazol-4-yl)picolinamide] | 1.7
COC1CCN(c2cnc(C(=O)Nc3csc(-c4nncn4[C@@H](C)C(F)(F)F)n3)cc2-n2cnc(C3CC3)c2)CC1 [Compound 30, (S)-4-(4-cyclopropyl-1H-imidazol-1-yl)-5-(4-methoxypiperidin-1-yl)-N-(2-(4-(1,1,1-trifluoropropan-2-yl)-4H-1,2,4-triazol-3-yl)thiazol-4-yl)picolinamide] | 2.3
CNC(=O)C1CCN(c2cnc(C(=O)Nc3csc(-c4nncn4[C@@H](C)C(F)(F)F)n3)cc2-n2cnc(C3CC3)c2)CC1 [Compound 31, (S)-4-(4-cyclopropyl-1H-imidazol-1-yl)-5-(4-(methylcarbamoyl)piperidin-1-yl)-N-(2-(4-(1,1,1-trifluoropropan-2-yl)-4H-1,2,4-triazol-3-yl)thiazol-4-yl)picolinamide] | 2.3
C[C@H](n1cnnc1-c1nc(NC(=O)c2cc(-n3cnc(C4CC4)c3)c(N3CCC(C(F)(F)F)CC3)cn2)cs1)C(F)(F)F [Compound 32, (S)-4-(4-cyclopropyl-1H-imidazol-1-yl)-5-(4-(trifluoromethyl)piperidin-1-yl)-N-(2-(4-(1,1,1-trifluoropropan-2-yl)-4H-1,2,4-triazol-3-yl)thiazol-4-yl)picolinamide] | 1.5
C[C@H](n1cnnc1-c1nc(NC(=O)c2cc(-n3cnc(C4CC4)c3)c(N3CCC(F)CC3)cn2)cs1)C(F)(F)F [Compound 34, (S)-4-(4-cyclopropyl-1H-imidazol-1-yl)-5-(4-fluoropiperidin-1-yl)-N-(2-(4-(1,1,1-trifluoropropan-2-yl)-4H-1,2,4-triazol-3-yl)thiazol-4-yl)picolinamide] | 1.7
COC1(C)CCN(c2cnc(C(=O)Nc3csc(-c4nncn4[C@@H](C)C(F)(F)F)n3)cc2-n2cnc(C3CC3)c2)CC1 [Compound 35, (S)-4-(4-cyclopropyl-1H-imidazol-1-yl)-5-(4-methoxy-4-methylpiperidin-1-yl)-N-(2-(4-(1,1,1-trifluoropropan-2-yl)-4H-1,2,4-triazol-3-yl)thiazol-4-yl)picolinamide] | 2.2
C[C@H](n1cnnc1-c1nc(NC(=O)c2cc(-n3cnc(C4CC4)c3)c(N3CCCOCC3)cn2)cs1)C(F)(F)F [Compound 36, (S)-4-(4-cyclopropyl-1H-imidazol-1-yl)-5-(1,4-oxazepan-4-yl)-N-(2-(4-(1,1,1-trifluoropropan-2-yl)-4H-1,2,4-triazol-3-yl)thiazol-4-yl)picolinamide] | 1.9
C[C@H](n1cnnc1-c1nc(NC(=O)c2cc(-n3cnc(C4CC4)c3)c(N3CCN4CCCC4C3)cn2)cs1)C(F)(F)F (stereo partly drawn) [Compound 37, 4-(4-cyclopropyl-1H-imidazol-1-yl)-5-(hexahydropyrrolo[1,2-a]pyrazin-2(1H)-yl)-N-(2-(4-((S)-1,1,1-trifluoropropan-2-yl)-4H-1,2,4-triazol-3-yl)thiazol-4-yl)picolinamide] | 1.8
C[C@H](n1cnnc1-c1nc(NC(=O)c2cc(-n3cnc(C4CC4)c3)c(N3CC4CN(C)CC4C3)cn2)cs1)C(F)(F)F (stereo partly drawn) [Compound 38, 4-(4-cyclopropyl-1H-imidazol-1-yl)-5-(5-methylhexahydropyrrolo[3,4-c]pyrrol-2(1H)-yl)-N-(2-(4-((S)-1,1,1-trifluoropropan-2-yl)-4H-1,2,4-triazol-3-yl)thiazol-4-yl)picolinamide] | 2.4
C[C@H](n1cnnc1-c1nc(NC(=O)c2cc(-n3cnc(C4CC4)c3)c(N3CCN4C(=O)OCC4C3)cn2)cs1)C(F)(F)F (stereo partly drawn) [Compound 39, 4-(4-cyclopropyl-1H-imidazol-1-yl)-5-(3-oxotetrahydro-1H-oxazolo[3,4-a]pyrazin-7(3H)-yl)-N-(2-(4-((S)-1,1,1-trifluoropropan-2-yl)-4H-1,2,4-triazol-3-yl)thiazol-4-yl)picolinamide] | 2.3
C[C@H](n1cnnc1-c1nc(NC(=O)c2cc(-n3cnc(C4CC4)c3)c(N3CC4CC4C3)cn2)cs1)C(F)(F)F (stereo partly drawn) [Compound 40, 5-(3-azabicyclo[3.1.0]hexan-3-yl)-4-(4-cyclopropyl-1H-imidazol-1-yl)-N-(2-(4-((S)-1,1,1-trifluoropropan-2-yl)-4H-1,2,4-triazol-3-yl)thiazol-4-yl)picolinamide] | 2.2
C[C@H](n1cnnc1-c1nc(NC(=O)c2cc(-n3cnc(C4CC4)c3)c(N3CC(N4CCOCC4)C3)cn2)cs1)C(F)(F)F [Compound 41, (S)-4-(4-cyclopropyl-1H-imidazol-1-yl)-5-(3-morpholinoazetidin-1-yl)-N-(2-(4-(1,1,1-trifluoropropan-2-yl)-4H-1,2,4-triazol-3-yl)thiazol-4-yl)picolinamide] | 1.9
C[C@H](n1cnnc1-c1nc(NC(=O)c2cc(-n3cnc(C4CC4)c3)c(N3CCN(C4CC4)CC3)cn2)cs1)C(F)(F)F [Compound 42, (S)-4-(4-cyclopropyl-1H-imidazol-1-yl)-5-(4-cyclopropylpiperazin-1-yl)-N-(2-(4-(1,1,1-trifluoropropan-2-yl)-4H-1,2,4-triazol-3-yl)thiazol-4-yl)picolinamide] | 1.8
C[C@H](n1cnnc1-c1nc(NC(=O)c2cc(-n3cnc(C4CC4)c3)c(N3CCN(CC4CC4)CC3)cn2)cs1)C(F)(F)F [Compound 43, (S)-4-(4-cyclopropyl-1H-imidazol-1-yl)-5-(4-(cyclopropylmethyl)piperazin-1-yl)-N-(2-(4-(1,1,1-trifluoropropan-2-yl)-4H-1,2,4-triazol-3-yl)thiazol-4-yl)picolinamide] | 1.8
C[C@H](n1cnnc1-c1nc(NC(=O)c2cc(-n3cnc(C4CC4)c3)c(N3CCC4(CC3)COC4)cn2)cs1)C(F)(F)F [Compound 44, (S)-4-(4-cyclopropyl-1H-imidazol-1-yl)-5-(2-oxa-7-azaspiro[3.5]nonan-7-yl)-N-(2-(4-(1,1,1-trifluoropropan-2-yl)-4H-1,2,4-triazol-3-yl)thiazol-4-yl)picolinamide] | 2.1
C[C@H](n1cnnc1-c1nc(NC(=O)c2cc(-n3cnc(C4CC4)c3)c(N3CC4(CCOCC4)C3)cn2)cs1)C(F)(F)F [Compound 45, (S)-4-(4-cyclopropyl-1H-imidazol-1-yl)-5-(7-oxa-2-azaspiro[3.5]nonan-2-yl)-N-(2-(4-(1,1,1-trifluoropropan-2-yl)-4H-1,2,4-triazol-3-yl)thiazol-4-yl)picolinamide] | 2.6
